Reference: ChEMBL document CHEMBL1201862, “PubChem BioAssay data set” (2004)
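These data come from cells grown in 96-well plates and exposed to compound for 48 hours at five concentrations. Here, GI50 denotes the concentration required for 50% inhibition of growth.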 The source made the active and inactive calls. No stated cut-off is given here; in the data, active = GI50 up to about 1.1 µM and inactive = higher.

Experiments:
Experiment in all cases: inhibition of tumour cell growth, NCI panel, 48 h
[1] = test system: XF498
[2] = test system: KM-20L2
[3] = test system: M19-MEL
[4] = test system: DMS-273
[5] = test system: DLD-1
[6] = test system: RXF 631
[7] = test system: DMS-114
[8] = test system: LXFL 529
[9] = test system: HOP-18

Row | SMILES | GI50 [1] | GI50 [2] | GI50 [3] | GI50 [4] | GI50 [5] | GI50 [6] | GI50 [7] | GI50 [8] | GI50 [9]
1 | COc1ccc(C(=O)C(CO)Oc2ccccc2OC)cc1OC (configuration not stated) | > 100 µM (inactive) | > 100 µM (inactive) | > 100 µM (inactive) | > 100 µM (inactive) | > 100 µM (inactive) | > 100 µM (inactive) | > 100 µM (inactive) | > 100 µM (inactive) | –
2 | Cc1ccc(NC(=O)C(=O)C(C(=O)c2ccc3ccccc3c2)C2OC(=O)c3ccccc32)c(C)c1 (configuration not stated) | 0.485 µM (active) | 24.4 µM (inactive) | 6.38 µM (inactive) | > 10 µM (inactive) | 12.6 µM (inactive) | 4.68 µM (inactive) | 7.6 µM (inactive) | 8.09 µM (inactive) | 12.1 µM (inactive)
3 | O=Cc1c(O)c(C(=O)Nc2ccc3[nH]c(=O)[nH]c3c2)cc2ccccc12 | – | > 100 µM (inactive) | > 100 µM (inactive) | > 100 µM (inactive) | > 100 µM (inactive) | > 100 µM (inactive) | > 100 µM (inactive) | > 100 µM (inactive) | > 100 µM (inactive)
4 | O=C(CSC(=S)N1CCCCC1)Nc1nc2c(s1)CCCC2 | 19.3 µM (inactive) | 46 µM (inactive) | 32.9 µM (inactive) | 49.4 µM (inactive) | 26.9 µM (inactive) | – | 53.2 µM (inactive) | 32.1 µM (inactive) | –
5 | C=C(C)C12CC3CC(/C(=N/O)C(C1)/C3=N\O)[C@@]2(C)O (some centres not stated) | – | > 100 µM (inactive) | > 100 µM (inactive) | > 100 µM (inactive) | > 100 µM (inactive) | – | > 100 µM (inactive) | > 100 µM (inactive) | –
6 | C=C1C(=O)OC2CC3(C)OC3CC/C(C)=C/C(OC(C)=O)C12 (configuration not stated) | 2 µM (inactive) | 6.55 µM (inactive) | 8.04 µM (inactive) | 14.9 µM (inactive) | 2.75 µM (inactive) | – | 7.4 µM (inactive) | 2.14 µM (inactive) | 10.4 µM (inactive)
7 | COc1ccc(-c2oc(/C=N/NC(N)=S)c([N+](=O)[O-])c2-c2ccc(OC)c(OC)c2)cc1OC | 26.7 µM (inactive) | 18.2 µM (inactive) | 24.2 µM (inactive) | – | 24.3 µM (inactive) | 30.4 µM (inactive) | 19.4 µM (inactive) | 20.3 µM (inactive) | –
8 | O=C(c1ccc(Cl)cc1)c1ccc(OCCSCCCCCCCCCCSCCOc2ccc(C(=O)c3ccc(Cl)cc3)cc2)cc1 | – | > 100 µM (inactive) | > 100 µM (inactive) | > 100 µM (inactive) | > 100 µM (inactive) | > 100 µM (inactive) | – | – | –
9 | O=C1COc2cc(NC(=S)Nc3ccccc3)ccc2N1 | > 100 µM (inactive) | > 100 µM (inactive) | > 100 µM (inactive) | > 100 µM (inactive) | > 100 µM (inactive) | > 100 µM (inactive) | > 100 µM (inactive) | > 100 µM (inactive) | > 100 µM (inactive)
10 | N=C(N)N/N=C/c1oc(-c2ccc(S(=O)(=O)O)o2)c(-c2ccc(S(=O)(=O)O)o2)c1[N+](=O)[O-] | – | > 100 µM (inactive) | > 100 µM (inactive) | > 100 µM (inactive) | > 100 µM (inactive) | – | > 100 µM (inactive) | > 100 µM (inactive) | > 100 µM (inactive)
11 | COc1cc(OC(C)=O)cc2c(OC(C)=O)ccc(OC(C)=O)c12 | – | > 100 µM (inactive) | – | – | – | – | – | > 100 µM (inactive) | –
12 | C/C(=C\CBr)CCC(Br)C(C)(C)Cl (configuration not stated) | – | – | > 100 µM (inactive) | > 100 µM (inactive) | > 100 µM (inactive) | – | > 100 µM (inactive) | > 100 µM (inactive) | > 100 µM (inactive)
13 | C=C1C(=O)OC2CCCCC3OC3C12 (configuration not stated) | 12 µM (inactive) | 10.1 µM (inactive) | 11.6 µM (inactive) | 10.3 µM (inactive) | 7.83 µM (inactive) | 6.19 µM (inactive) | – | 7.26 µM (inactive) | 11 µM (inactive)
14 | Cc1cc(N(CCC#N)CCC#N)ccc1/C=C(\N=[N+]=[N-])C(=O)NC(=O)COc1ccccc1 | 34.7 µM (inactive) | > 100 µM (inactive) | – | > 100 µM (inactive) | > 100 µM (inactive) | > 100 µM (inactive) | > 100 µM (inactive) | > 100 µM (inactive) | > 100 µM (inactive)
15 | COc1cccc(/C=N\NC(=O)C(C)SC(C)C(=O)N/N=C/c2cccc(OC)c2)c1 (configuration not stated) | 53.1 µM (inactive) | 47 µM (inactive) | > 63.4 µM (inactive) | 33 µM (inactive) | 58.2 µM (inactive) | – | 19.4 µM (inactive) | 33.9 µM (inactive) | –
16 | Cc1cc(NC(=O)NC(=O)c2ccccc2N)ccc1Oc1ncc(Br)cn1 | 0.0334 µM (active) | 0.016 µM (active) | 0.0231 µM (active) | < 0.0316 µM (active) | < 0.0161 µM (active) | – | < 0.01 µM (active) | < 0.0179 µM (active) | 28.8 µM (inactive)
17 | CCOC(=O)c1cccc(=O)c(C(=O)OCC)c1 | 46.1 µM (inactive) | 97.3 µM (inactive) | 53.1 µM (inactive) | 48.2 µM (inactive) | 40 µM (inactive) | 67 µM (inactive) | 46.8 µM (inactive) | 38.3 µM (inactive) | –
18 | CCCCc1c2c(nc3c1CC/C(=C\c1ccc([N+](=O)[O-])cc1)C3=O)CCCC2 | – | 2.01 µM (inactive) | 2.29 µM (inactive) | 1.76 µM (inactive) | 1.75 µM (inactive) | – | 2.1 µM (inactive) | 1.37 µM (inactive) | –
19 | CC(C)(C)c1cc(C#N)c2c(c1)C(=O)OC2(c1ccccc1)c1ccccc1C#N (configuration not stated) | > 100 µM (inactive) | > 100 µM (inactive) | > 100 µM (inactive) | > 100 µM (inactive) | > 100 µM (inactive) | – | > 100 µM (inactive) | > 100 µM (inactive) | > 100 µM (inactive)
20 | COc1cc(Oc2c(O)c(C)c(OC)c(C(C)=O)c2O)c(C(C)=O)c(O)c1C | 59.6 µM (inactive) | 63.8 µM (inactive) | 55.5 µM (inactive) | 37.8 µM (inactive) | 66.7 µM (inactive) | > 100 µM (inactive) | 47.5 µM (inactive) | 49.5 µM (inactive) | –
21 | COc1ccc(C(c2c(O)c3ccccc3n(C)c2=O)c2c(O)c3ccccc3n(C)c2=O)cc1 | 99.8 µM (inactive) | 21.3 µM (inactive) | 98.4 µM (inactive) | 31.2 µM (inactive) | 37.5 µM (inactive) | 21.3 µM (inactive) | 63.1 µM (inactive) | 46.1 µM (inactive) | 35.7 µM (inactive)
22 | COc1cc(C(=O)C/C(CCC(=O)Nc2ccc(Cl)cc2C)=N/NC(=O)C(N)=O)ccc1O | > 100 µM (inactive) | > 100 µM (inactive) | > 100 µM (inactive) | > 100 µM (inactive) | > 100 µM (inactive) | – | > 100 µM (inactive) | > 100 µM (inactive) | > 100 µM (inactive)
23 | O=C(O)C1OC(n2cc(F)c(=O)[nH]c2=O)CC1O (configuration not stated) | > 68.2 µM (inactive) | 23.8 µM (inactive) | > 83.2 µM (inactive) | 12.9 µM (inactive) | > 100 µM (inactive) | – | > 92.3 µM (inactive) | 8.99 µM (inactive) | 40.6 µM (inactive)
24 | CCOc1ccc2c(c1)[n+]([O-])c(-c1ccc([N+](=O)[O-])cc1)c(N)[n+]2[O-] | – | > 100 µM (inactive) | > 100 µM (inactive) | > 100 µM (inactive) | > 100 µM (inactive) | > 100 µM (inactive) | 29.6 µM (inactive) | > 100 µM (inactive) | > 100 µM (inactive)
25 | CNC(=O)OCc1cc2ccncc2c2c1[nH]c1ccccc12 | > 45.1 µM (inactive) | > 100 µM (inactive) | > 100 µM (inactive) | > 100 µM (inactive) | 5.89 µM (inactive) | – | > 100 µM (inactive) | > 39.6 µM (inactive) | > 100 µM (inactive)
26 | CC(C)(C)OC(=O)NC1CCC[C@H]1O (some centres not stated) | > 100 µM (inactive) | > 100 µM (inactive) | > 100 µM (inactive) | > 100 µM (inactive) | > 100 µM (inactive) | > 100 µM (inactive) | > 100 µM (inactive) | > 100 µM (inactive) | –
27 | COC(=O)CC1CCN(C#N)CC1CC[N+](=O)[O-] (configuration not stated) | – | > 100 µM (inactive) | > 100 µM (inactive) | > 100 µM (inactive) | > 100 µM (inactive) | > 100 µM (inactive) | > 100 µM (inactive) | > 100 µM (inactive) | > 100 µM (inactive)
28 | CCOC(=O)c1ccc(N[C@@H]2c3cc4c(cc3C(C3=CC(=O)C(=O)C(OC)=C3)[C@H]3C(=O)OCC32)OCO4)cc1 (some centres not stated) | 1.48 µM (inactive) | 6.37 µM (inactive) | 6.1 µM (inactive) | 1.12 µM (inactive) | – | 1.91 µM (inactive) | 1.79 µM (inactive) | 6.5 µM (inactive) | –
